Reference: patent US20190105369A1, “CD31SHED AGONISTS FOR USE IN THE PREVENTION AND/OR TREATMENT OF REPERFUSION INJURY” (INSTITUT NATIONAL DE LA SANTE ET DE LA RECHERCHE MEDICAL …, priority 2016, published 2019)
Entries after “also recorded” stand apart in the source; their conditions may differ. Non-standard residues stand in square brackets, D forms with d. No end group written: not given here.

Legend:
[1] = test system: apolipoprotein E knockout mice; experiment: Model of myocardial ischemia-reperfusion (coronary artery ligation 45 min, reperfusion 24 h); assay type: in vivo
Protocol: FIG. 2: Effect of P8RI (10 mg/Kg P8RI by subcutaneous injection, 2 minutes prior to reperfusion) on the area at risk and size of myocardial infarction in apolipoprotein E knockout mice (female, 18 week-old) subjected to 45 minutes of ischemia by ligation of the coronary artery, followed by 24 hours of reperfusion. […] P8RI: mice receiving P8RI (n=5); Control: mice receiving a similar volume of vehicle (PBS) without P8RI (n=5). T-Test.
In order to reproduce the ischemia-reperfusion injury in the setting of coronary atherosclerosis (as it occurs in patients) were used 18 week-old female apolipoprotein E knockout mice (N=12/group) which typically develop coronary atherosclerosis by the age of 16 week (Caligiuri et al., Atherosclerosis. 1999 August;145(2):301-8). Mice were subjected to surgical ligation of the left main coronary artery, according to the method described by Michael et al. (Am J Physiol. 1995 December;269(6 Pt 2):H2147-54). After 43 minutes of ischemia, the mice received either P8RI (10 mg/kg) or the vehicle (PBS) by subcutaneous injection and 2 minutes later the ischemic area was reperfused by reopening of the ligated coronary artery. The next day, the mice were re-anesthetized, the chest reopened and the coronary ligature re-tied; the coronary tree was then rinsed with 2 ml of PBS pushed in the coronary tree through retrograde cannulation of the left carotid artery and the non-ischemic area stained by the injection of 50 μl of evan's blue (3% in PBS) in the same cannula. The heart was then quickly removed from the chest and immersed in a saturated KCl solution (to stop the heart in diastole) and rinsed in PBS. […] Each slice was photographed and the area at risk (AAR, negatively stained by the evan's blue) and the necrotic area (MI, negatively stained in red by the TTC solution) were then measured by computer-assisted image analysis.
The AAR, expressed as % of the left ventricle (LV) surface and the necrotic area (MI, expressed as percentage of the AAR and of the LV) were calculated on each slice. The data shown in FIG. 2 are expressed as mean±SEM.

[2] = test system: Rats; experiment: Model of mesenteric ischemia-reperfusion (mesenteric artery clamped 30 minutes, reperfusion 4 hours); assay type: in vivo
Protocol: Rats are anesthetized by urethane I.P. A catheter is introduced in the right jugular vein for venous sampling, treatment administration, and solute perfusion (NaCl 0.9%, 10 μl/H/g b.w.) during all the experimental period. A catheter is introduced in the left internal carotid artery for arterial blood pressure monitoring and another one in the bladder for urine collection. […] The aortic ostium of the mesenteric artery is controlled. The intravenous administration of the peptide is initiated 5 minutes before clamping the mesenteric artery and after blood sampling (T0). Then, the mesenteric artery is clamped (total occlusion) for 30 minutes creating mesenteric ischemia. Blood sampling is performed at the end of the mesenteric ischemia period (T0.5). The mesenteric artery is then unclamped and reperfusion is follow-up to 4 hours. New blood samplings are performed each hour (T1.5, 2.5, 3.5, 4.5). The animal is sacrificed at the end of the experimental period after a last blood sampling. Urines are collected and diuresis measured each hour. At sacrifice, the ischemic intestine is sampled. One fragment is extruded in order to measure hemoglobin content. The other one is fixed in paraformaldehyde for histology. Several intermediary biological criteria are use in order to characterize the ischemia-reperfusion injury and to evaluate the beneficial effect of the CD31^shed agonist peptide: plasma and urinary free DNA (Picogreen fluorescent intercalant, Invitrogen), from neutrophil origin, traducing neutrophil activation and death, intra-intestinal lumen hemoglobin content (acid formic reaction, Calbiochem kit), traducing epithelial injury, Myeloperoxidase (MPO) content in the intestinal mucosa, reflecting the local accumulation and activation of neutrophils, plasma soluble p-selectin and MMP9 content, reflecting systemic neutrophil activation, as p-selectin is released by a cleavage from the surface of activated neutrophils (and platelets) and MMP9 is contained in the azurofilic granules of the neutrophils and is released early upon neutrophil degranulation. Finally, the extent of mucin film protection was evaluated by histology of the intestinal wall (Alcian blue staining).

[3] = test system: human platelet; details: cited from earlier work
[4] = test system: thrombin generation; details: cited from earlier work
[5] = 10 mg/kg subcutaneous, 2 minutes prior to reperfusion, 24 hours of reperfusion, vs vehicle (PBS)
[6] = intravenous perfusion, vs controls
[7] = mesenteric artery transient occlusion model

Substance: kwpalfvr ([dK][dW][dP][dA][dL][dF][dV][dR]) [Peptide P8RI, CD31shed agonist]
- size of myocardial infarction (MI) as percentage of the area at risk (AAR) [1, 5]: significantly effective in reducing
- size of myocardial infarction (MI) as percentage of the left ventricle (LV) [1, 5]: significantly effective in reducing
- size of the necrotic areas ([1]; administration during the ischemia-reperfusion period, vs non-treated control mouse): strongly decrease
- hemoglobin content in the intestine lumen ([2]; intravenous perfusion, at sacrifice, controls 317.1±93.27): 129.4±47.39 μg/mg prot
- epithelial villosity abrasion, epithelium desquamation ([2]; intravenous perfusion, histology): protect
- mucin / mucus film integrity (histology of the intestinal wall, Alcian blue staining) ([2]; intravenous perfusion, vs control rats, data not shown): histological conservation of mucus; also recorded: preserved most of the mucin film
- free hemoglobin within the intestinal lumen (ratio, normalized by total protein content) [2, 6]: decreased
- free myeloperoxidase MPO in the intestinal mucosa (direct ELISA, optical density) [2, 6]: decreased; also recorded: significantly decrease
- plasma MMP9, cumulative concentration (area under the curve of the different time points) [2, 6]: decreased; also recorded: significantly decrease
- free DNA in the plasma over time ([2]; intravenous, initiated 5 minutes before clamping, vs control rats): arrest of the progressive increase; also recorded: remains low and similar to sham-operated rats; also recorded: significantly reduces the progressive increase
- urinary free DNA ([2]; intravenous, initiated 5 minutes before clamping, vs controls): reduced; also recorded: significantly reduces the progressive increase
- LPS secretion in blood [2, 7]: decrease
- bacterial translocation [2, 7]: prevented
- intestinal necrosis [2, 7]: prevented
- human platelet aggregation [3]: reduces
- thrombin generation [4]: reduces
